In US11179380B2, “Compounds and compositions for use in treating psoriasis” (SOLVOTRIN THERAPEUTICS LTD, priority 2017, dated 2021):
Where two headings read alike, the source gives them in different places. Values belong to the molecule of their own block, whether it stands above or below them.

What was measured:
[1] = Log P from reversed-phase TLC Rf/Rm values (MeOH in water mobile phases); conditions: for Rm: calculated from Rf
Procedure: The partition coefficient (P) is used to describe the lipophilicity of a drug. It is defined as the ratio of equilibrium concentrations of a drug in an organic phase (Corg) and an aqueous phase (Caq).
Most commonly the organic solvent is n-octanol and the other solvent is water. Hydrophobic molecules will have a high P value while hydrophilic molecules will have a low P value.
Rm values were calculated from Rf values that were obtained at three different mobile phase compositions (40, 50 and 60% MeOH in water).
The Rm value was calculated using the following equation: […]
The theoretical Rm value at 0% organic modifier was calculated by extrapolating from the calibration curves that were obtained. These values were then correlated to the literature log P of two reference compounds (methyl benzoate and paracetamol).

[2] = literature log P of reference compounds; cited from earlier work
Aldara-treated mice = experiment: Aldara-induced model of psoriasis in mice, clinical scoring (PASI); assay type: in vivo, mice (C57BL/6J); conditions: for PASI scores: relative to Vehicle; for inflammation in the mouse psoriasis model: summary statement in RESULTS
Procedure: Specific Pathogen-Free female C57BL/6J strain mice, 6-8 weeks of age, were obtained from a commercial supplier and bred in-house (JAX, Charles River). Mice were fed irradiated diet and housed in individually ventilated cages (Tecniplast, UK) under positive pressure. All animal experiments were performed in compliance with the Health Products Regulatory Authority and approved by the Trinity College Dublin's BioResources ethical review board.
The Aldara-induced model of psoriasis was used (Flutter and Nestle, 2013; Morwietz, 2015; Russell et al., 2013; van der Fits et al., 2009). The dorsal skin of mice was shaved and depilated on day −1. Mice were that were in the telogen phase (resting phase) of the hair cycle were chosen for experiments. Mice with visual skin damage from shaving were excluded. Mice were then randomly divided into groups for treatment with topical application of vehicle (white petroleum jelly) or Solvotrin test compounds, prepared in white petroleum jelly. On day 0, mice were scored for disease signs, as per below. After which 62.5 mg of Aldara™ cream (5% Imiquimod; MEDA Pharmaceuticals) was applied to a defined area of the shaved dorsal skin surface. Thirty minutes after the Aldara application, test compounds or vehicle was applied to the dorsal flank, to cover the entire Aldara-challenged surface, with an even layer of the white petroleum. This process was repeated for a further 5 days. Mice were scored daily. On day 6 the mice were euthanized for tissue collection.
The skin of mice was scored for signs of psoriasis-like inflammation for a total of 7 days, (i.e. days 0-6), as described (van der Fits et al., 2009). Mice were scored according to 3 parameters: erythema (the redness of skin); thickening of the skin; and scaling (dryness and flaking of the skin). For each parameter, the mice were scored on a scale from 0-4. Mice with no pathology were scored 0. Mice with mild pathology scored 1. […] The total, or Psoriasis Area and Severity Index (PASI), score was the cumulative score of all three parameters. Therefore for each mouse studied the PASI score can range between 0 to 12.
Power calculations on data from previous studies have shown that a sample size of at least 6 will detect significant difference (P<0.05) in PASI scores between groups. ANOVA and Dunnett Multiple Comparison Test determined statistical differences between multiple groups. Two tailed Student's t-test was used to compare statistical differences between two groups.
Unless otherwise specified percentage concentration of a test compound in a composition refers to the weight percent of said test compound in the composition. For example, application of 2% compound X, means application of a composition comprising 2 weight percent of compound X.

normal healthy skin = experiment: Assessment of erythema and itchiness after topical application to shaved forearm; assay type: in vivo
Procedure: Test article dispersed in petroleum jelly was applied to a 2×2 cm patch of shaved forearm (n=3). At specified time intervals the degree of erythema was recorded by blinded observers on a scale of 1-4 (n=3). Itchiness was observed by scratching behaviour also by blinded observers on a scale of 1-4. The time course of erythema resolution was recorded at 30 minute intervals.

IMQ on mouse skin = conditions: topical; cited from earlier work
[3] = theoretical Rm at 0% organic modifier
[4] = 3% in petroleum jelly, statistically significant (P<0.05) only on day 3
[5] = 3% in petroleum jelly, vs Vehicle
[6] = in petroleum jelly (concentration not given), vs Vehicle

Structure (SMILES): O=[N+]([O-])O[C@@H]1CO[C@H]2[C@@H]1OC[C@@H]2O [ISMN, isosorbide mononitrate, reference compound]
Rf ([1]; 40% MeOH in water): 0.6060 | Rm ([1]; 40% MeOH in water): −0.1870 | Rf ([1]; 50% MeOH in water): 0.6530 | Rm ([1]; 50% MeOH in water): −0.2746 | Rf ([1]; 60% MeOH in water): 0.7000 | Rm ([1]; 60% MeOH in water): −0.3680 | Log P (calculated) ([1]; from extrapolated Rm correlated to literature log P of methyl benzoate and paracetamol): −0.333 | Extrapolated Rm (y value) [1, 3]: 0.176

Structure (SMILES): CC(=O)OC1COC2C(OC(=O)c3cccnc3)COC12 (centres unmarked) [Isosorbide-2-Acetate-5-nicotinate, Isosorbide 2-acetate-5-nicotinate]
Extrapolated Rm (y value) [1]: 1.2763 | Log P (calculated) [1]: 1.3369 | Rf ([1]; 40% MeOH in water): 0.2860 | Rm ([1]; 40% MeOH in water): 0.3973 | Rf ([1]; 50% MeOH in water): 0.3730 | Rm ([1]; 50% MeOH in water): 0.2256 | Rf ([1]; 60% MeOH in water): 0.5200 | Rm ([1]; 60% MeOH in water): −0.0348

Structure (SMILES): O=C(OC1COC2C(OC(=O)c3cccnc3)COC12)c1ccccc1 (centres unmarked) [Isosorbide-2-Benzoate-5-nicotinate, Isosorbide 2-benzoate-5-nicotinate]
Extrapolated Rm (y value) [1]: 3.5292 | Log P (calculated) [1]: 4.7555 | Rf ([1]; 40% MeOH in water): 0.0260 | Rm ([1]; 40% MeOH in water): 1.5736 | Rf ([1]; 50% MeOH in water): 0.0870 | Rm ([1]; 50% MeOH in water): 1.0210 | Rf ([1]; 60% MeOH in water): 0.2060 | Rm ([1]; 60% MeOH in water): 0.5860

Structure (SMILES): CCCC(=O)O[C@H]1CO[C@H]2[C@@H]1OC[C@H]2OC(=O)c1cccnc1 [Isosorbide-2-Butyrate-5-nicotinate, Isosorbide 2-butyrate-5-nicotinate]
Extrapolated Rm (y value) [1]: 2.2483 | Log P (calculated) [1]: 2.8118 | Rf ([1]; 40% MeOH in water): 0.1060 | Rm ([1]; 40% MeOH in water): 0.9260 | Rf ([1]; 50% MeOH in water): 0.2067 | Rm ([1]; 50% MeOH in water): 0.5841 | Rf ([1]; 60% MeOH in water): 0.3530 | Rm ([1]; 60% MeOH in water): 0.2631

Structure (SMILES): CCC(=O)OC1COC2C(OC(=O)c3cccnc3)COC12 (centres unmarked) [Isosorbide-2-Propionate-5-nicotinate, Isosorbide 2-propionate-5-nicotinate]
Extrapolated Rm (y value) [1]: 1.9553 | Log P (calculated) [1]: 2.367 | Rf ([1]; 40% MeOH in water): 0.1600 | Rm ([1]; 40% MeOH in water): 0.7202 | Rf ([1]; 50% MeOH in water): 0.2730 | Rm ([1]; 50% MeOH in water): 0.4254 | Rf ([1]; 60% MeOH in water): 0.4400 | Rm ([1]; 60% MeOH in water): 0.1047

Structure (SMILES): CCCCC(=O)O[C@H]1CO[C@H]2[C@@H]1OC[C@H]2OC(=O)c1cccnc1 [Isosorbide-2-Valeroate-5-nicotinate, Isosorbide 2-valeroate-5-nicotinate]
Extrapolated Rm (y value) [1]: 2.9143 | Log P (calculated) [1]: 3.8225 | Rf ([1]; 40% MeOH in water): 0.0530 | Rm ([1]; 40% MeOH in water): 1.2521 | Rf ([1]; 50% MeOH in water): 0.1200 | Rm ([1]; 50% MeOH in water): 0.8653 | Rf ([1]; 60% MeOH in water): 0.2730 | Rm ([1]; 60% MeOH in water): 0.4254

Structure (SMILES): COC(=O)c1ccccc1 [Methyl Benzoate, methyl benzoate, reference compound]
Log P (ref) [2]: 2.2 (1) | Log P (calculated) [1]: 2.2 | Rf ([1]; 40% MeOH in water): 0.1460 | Rm ([1]; 40% MeOH in water): 0.7671 | Rf ([1]; 50% MeOH in water): 0.1867 | Rm ([1]; 50% MeOH in water): 0.6391 | Rf ([1]; 60% MeOH in water): 0.3600 | Rm ([1]; 60% MeOH in water): 0.2499 | Extrapolated Rm (y value) [1, 3]: 1.845

Rf ([1]; 40% MeOH in water): 0.5460 | Rm ([1]; 40% MeOH in water): −0.0801 | Rf ([1]; 50% MeOH in water): 0.6270 | Rm ([1]; 50% MeOH in water): −0.2256 | Rf ([1]; 60% MeOH in water): 0.7460 | Rm ([1]; 60% MeOH in water): −0.4679 | Extrapolated Rm (y value) [1, 3]: 0.7116
Structure (SMILES): CC(=O)Nc1ccc(O)cc1 [Paracetamol, paracetamol, reference compound]
Log P (ref) [2]: 0.48 (2)

Structure (SMILES): CC(=O)Oc1ccccc1C(=O)OC1COC2C(OC(=O)c3ccccc3O)COC12 (centres unmarked) [ST0701, Isosorbide-2-aspirinate-5-salicylate]
PASI scores (Aldara-treated mice; [4]): reduced the PASI scores | erythema (Aldara-treated mice; [5]): reduced levels of elevated skin thickness and erythema | skin thickness (Aldara-treated mice; [5]): reduced levels of elevated skin thickness | inflammation in the mouse psoriasis model (Aldara-treated mice): did not inhibit inflammation

Structure (SMILES): O=C(O[C@@H]1CO[C@H]2[C@@H]1OC[C@@H]2OC(=O)c1ccccc1O)c1cccnc1 [ST0702Sal, Isosorbide-2-salicylate-5-nicotinate]
PASI scores (Aldara-treated mice; in petroleum jelly (concentration not given), days 4, 5 and 6): significantly reduced | Aldara-induced scaling (Aldara-treated mice; [6]): significantly (P<0.001) reduced | erythema (Aldara-treated mice; [6]): not altered | skin thickness (Aldara-treated mice; [6]): not altered

Structure (SMILES): CC(=O)Oc1ccccc1C(=O)O[C@H]1CO[C@H]2[C@@H]1OC[C@H]2OC(=O)c1ccncc1 [ST0703, Isosorbide-2-aspirinate-5-isonicotinate]
PASI scores (Aldara-treated mice; [4]): reduced the PASI scores | erythema (Aldara-treated mice; [5]): reduced levels of elevated skin thickness and erythema | skin thickness (Aldara-treated mice; [5]): reduced levels of elevated skin thickness | inflammation in the mouse psoriasis model (Aldara-treated mice): did not inhibit inflammation

Structure (SMILES): C=C1/C(=C\C=C2/CCC[C@]3(C)[C@@H]([C@H](C)/C=C/[C@@H](O)C4CC4)CC[C@@H]23)C[C@@H](O)C[C@@H]1O [calcipotriol]
cumulative irritancy score (irritancy/erythema) (normal healthy skin; 0.005%): did cause erythema | IMQ-induced increased thickness of epidermal and subcutaneous tissue (IMQ on mouse skin): exacerbated | thickness reduction (IMQ on mouse skin): ineffective

Structure (SMILES): C[C@H]1C[C@H]2[C@@H]3CCC4=CC(=O)C=C[C@]4(C)[C@@]3(F)[C@@H](O)C[C@]2(C)[C@@]1(O)C(=O)CCl [clobetesol]
thickness reduction (IMQ on mouse skin): best

Structure (SMILES): O=C(O)c1cccnc1 [niacin]
temporal erythema response (normal healthy skin; 5% in petroleum jelly): persisted in the niacin case up to six hours | skin irritation (normal healthy skin; in vivo): causes skin irritation

Structure (SMILES): O=C(O)c1ccccc1O [salicylic acid]
cumulative irritancy score (irritancy/erythema) (normal healthy skin; 2%): did cause erythema

Structure (SMILES): CCOC(=O)c1ccc(C#Cc2ccc3c(c2)C(C)(C)CCS3)nc1 [tazarotene]
IMQ-induced increased thickness of epidermal and subcutaneous tissue (IMQ on mouse skin): exacerbated | thickness reduction (IMQ on mouse skin): ineffective
